Target: T1, GCS enzyme contained within Golgi preparations isolated from human A375 malignant melanoma skin cells (Homo sapiens, UniProt Q16739)
T1 construct: endogenous levels of GCS enzyme contained within Golgi preparations isolated from human A375 malignant melanoma skin cells; endogenous in cells; host or cells: A375 human malignant melanoma cells (crude Golgi preparation)
T1 sequence (Q16739 1-394): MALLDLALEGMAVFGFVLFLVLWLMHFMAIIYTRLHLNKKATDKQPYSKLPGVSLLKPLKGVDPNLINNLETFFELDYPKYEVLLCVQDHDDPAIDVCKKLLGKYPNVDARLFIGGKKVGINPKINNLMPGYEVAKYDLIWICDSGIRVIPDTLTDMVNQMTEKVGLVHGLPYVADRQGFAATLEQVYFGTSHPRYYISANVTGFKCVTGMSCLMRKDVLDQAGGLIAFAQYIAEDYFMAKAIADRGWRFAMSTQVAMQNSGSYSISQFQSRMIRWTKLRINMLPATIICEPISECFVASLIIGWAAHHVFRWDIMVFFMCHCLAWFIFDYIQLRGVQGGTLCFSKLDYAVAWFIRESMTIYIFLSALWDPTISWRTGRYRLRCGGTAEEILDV
Experiment: UDP-Glo glucosylceramide synthase biochemical assay
Settings: crude Golgi preparation from A375 cells; C6 ceramide and UDP-glucose substrates; 20 h incubation at room temperature; UDP detected by luminescence
Text: UDP-Glo™ Glucosylceramide Synthase Biochemical Assay
A UDP-Glo™ glucosylceramide synthase biochemical assay was utilized to evaluate the effect of test compounds on the activity of endogenous levels of GCS enzyme contained within Golgi preparations isolated from human A375 malignant melanoma skin cells. The UDP-Glo™ glucosylceramide synthase assay uses UDP-Glucose as a nucleotide-glycosyl donor and ceramide as substrate acceptor molecules. In the reaction, glucosylceramide synthase (GCS) transfers glucose from UDP-Glucose to ceramide. Glucosylceramide and UDP are released as products.
Using Promega's UDP-Glo™ Glycosyltransferase assay kit (Promega Corporation, Madison, WI, USA (Promega)), GCS activity was indirectly measured by detecting the amount of UDP produced. An aliquot of GCS enzyme (1.5 μg crude golgi preparation, total protein) and titrated test compound were aliquoted to each well and incubated for 30 minutes at room temperature. […] An equivalent volume of substrate mixture was then added to each well. Following a 20 h incubation at room temperature to allow for GCS turnover of substrate, an equal volume of UDP detection reagent (Promega) was added to each well and incubated for an additional 75 minutes at room temperature to simultaneously convert the accumulated UDP product into ATP and generate light in a luciferase reaction. The generated light was detected using a luminometer. […] luminescence values (RLUs) were normalized to mean “min” and “max” effects, as determined on each plate. […] Values for % Emax and EC50 were determined by best-fitting the normalized data to a curve in Activity Base along a four-parameter logistic nonlinear regression (4PL) model (based on the Levenberg-Marquardt algorithm and defined by the equation below):
[formula] where: n is 4 PMin (bottom of the curve); m is 4 PMax (top of the curve); i is IP (inflection point of curve); and p is slope. See Levenberg, K., “A Method for the Solution of Certain Problems in Least Squares”, Quart. Appl. Math. […] Math.

Row | EC50 | Structure (SMILES)
1 | 0.0097 µM | CC(C)(O)C(C1CC1)N1Cc2cccc(C#Cc3ccnc4c3CCC4)c2C1=O (single isomer, unassigned) [Compound 172, (R or S)-2-(1-Cyclopropyl-2-hydroxy-2-methylpropyl)-7-((6,7-dihydro-5H-cyclopenta[b]pyridin-4-yl)ethynyl)isoindolin-1-one]
2 | 0.12 µM | CC(C)(O)C(C1CC1)N1Cc2cccc(CCc3ccnc4c3CCC4)c2C1=O (single isomer, unassigned) [Compound 173, (R or S)-2-(1-Cyclopropyl-2-hydroxy-2-methylpropyl)-7-(2-(6,7-dihydro-5H-cyclopenta[b]pyridin-4-yl)ethyl)isoindolin-1-one]
3 | 0.0068 µM | CC(C)(O)C(C1CC1)N1Cc2cccc(/C=C/c3c(Cl)cnc4c3OCO4)c2C1=O (single isomer, unassigned) [Compound 174, (R or S)-(E)-7-(2-(6-Chloro-[1,3]dioxolo[4,5-b]pyridin-7-yl)vinyl)-2-(1-cyclopropyl-2-hydroxy-2-methylpropyl)isoindolin-1-one]
4 | 0.027 µM | Cc1cnc2c(c1/C=C/c1cccc3c1C(=O)N(C(C1CC1)C(C)(C)O)C3)OCO2 (single isomer, unassigned) [Compound 175, (R or S)-(E)-2-(1-Cyclopropyl-2-hydroxy-2-methylpropyl)-7-(2-(6-methyl-[1,3]dioxolo[4,5-b]pyridin-7-yl)vinyl)isoindolin-1-one]
5 | 0.014 µM | Cc1cnc2c(c1CCc1cccc3c1C(=O)N(C(C1CC1)C(C)(C)O)C3)OCO2 (single isomer, unassigned) [Compound 176, (R or S)-2-(1-Cyclopropyl-2-hydroxy-2-methylpropyl)-7-(2-(6-methyl-[1,3]dioxolo[4,5-b]pyridin-7-yl)ethyl)isoindolin-1-one]
6 | 0.028 µM | CC(C)(O)C(C1CC1)N1Cc2cccc(COc3c(Cl)cnc4c3OCO4)c2C1=O (single isomer, unassigned) [Compound 177, (R or S)-7-(((6-chloro-[1,3]dioxolo[4,5-b]pyridin-7-yl)oxy)methyl)-2-(1-cyclopropyl-2-hydroxy-2-methylpropyl)isoindolin-1-one]
7 | 0.021 µM | Cc1cnc2c(c1NCc1cccc3c1C(=O)N(C(C1CC1)C(C)(C)O)C3)OCO2 (single isomer, unassigned) [Compound 178, (R or S)-2-(1-Cyclopropyl-2-hydroxy-2-methylpropyl)-7-(((6-methyl-[1,3]dioxolo[4,5-b]pyridin-7-yl)amino)methyl)isoindolin-1-one]
8 | 0.016 µM | CC(C)(O)C(C1CC1)N1Cc2cccc(OCc3c(Cl)cnc4c3OCO4)c2C1=O (single isomer, unassigned) [Compound 179, (R or S)-7-((6-chloro-[1,3]dioxolo[4,5-b]pyridin-7-yl)methoxy)-2-(1-cyclopropyl-2-hydroxy-2-methylpropyl)isoindolin-1-one]
9 | 0.035 µM | CC(C)(O)C(C1CC1)N1Cc2cccc(OCc3ccnc4c3CCC4)c2C1=O (single isomer, unassigned) [Compound 180, (R or S)-2-(1-cyclopropyl-2-hydroxy-2-methylpropyl)-7-((6,7-dihydro-5H-cyclopenta[b]pyridin-4-yl)methoxy)isoindolin-1-one]
10 | 0.054 µM | Cc1cnc2c(c1COc1cccc3c1C(=O)N(C(C1CC1)C(C)(C)O)C3)OCO2 (single isomer, unassigned) [Compound 181]
11 | 0.26 µM | Cc1nnc(-c2cccc(-c3cccc4c3C(=O)N([C@H](C3CC3)C(C)(C)O)C4)c2)o1 [Compound 13, (R)-2-(1-cyclopropyl-2-hydroxy-2-methylpropyl)-7-(3-(5-methyl-1,3,4-oxadiazol-2-yl)phenyl)isoindolin-1-one]
12 | 0.001 µM | Cc1cc(-c2ccc(-c3cc(F)cc4c3C(=O)N([C@H](C3CC3)C(C)(C)O)C4)cc2)on1 [Compound 26, (R)-2-(1-cyclopropyl-2-hydroxy-2-methylpropyl)-5-fluoro-7-(4-(3-methylisoxazol-5-yl)phenyl)isoindolin-1-one]
13 | 0.0014 µM | Cc1nnc(-c2ccc(-c3cc(F)cc4c3C(=O)N([C@H](C3CC3)C(C)(C)O)C4)c(F)c2)o1 [Compound 27, (R)-2-(1-cyclopropyl-2-hydroxy-2-methylpropyl)-5-fluoro-7-(2-fluoro-4-(5-methyl-1,3,4-oxadiazol-2-yl)phenyl)isoindolin-1-one]
14 | 0.2 µM | Cn1cc(-c2ccc(-c3nccc4c3C(=O)N([C@H](C3CC3)C(C)(C)O)C4)cc2)cn1 [Compound 29, (R)-2-(1-cyclopropyl-2-hydroxy-2-methylpropyl)-4-(4-(1-methyl-1H-pyrazol-4-yl)phenyl)-1,2-dihydro-3H-pyrrolo[3,4-c]pyridin-3-one]
15 | 0.057 µM | Cn1cc(-c2ccc(-c3cncc4c3C(=O)N([C@H](C3CC3)C(C)(C)O)C4)cc2)cn1 [Compound 32, (R)-2-(1-cyclopropyl-2-hydroxy-2-methylpropyl)-7-(4-(1-methyl-1H-pyrazol-4-yl)phenyl)-2,3-dihydro-1H-pyrrolo[3,4-c]pyridin-1-one]
16 | 0.048 µM | Cn1cc(-c2ccc(-c3ccnc4c3C(=O)N([C@H](C3CC3)C(C)(C)O)C4)cc2)cn1 [Compound 34, (R)-6-(1-cyclopropyl-2-hydroxy-2-methylpropyl)-4-(4-(1-methyl-1H-pyrazol-4-yl)phenyl)-6,7-dihydro-5H-pyrrolo[3,4-b]pyridin-5-one]
17 | 0.0068 µM | Cc1cc(-c2ccnc3c2C(=O)N([C@H](C2CC2)C(C)(C)O)C3)c(F)cc1-c1cnn(C)c1 [Compound 35, (R)-6-(1-cyclopropyl-2-hydroxy-2-methylpropyl)-4-(2-fluoro-5-methyl-4-(1-methyl-1H-pyrazol-4-yl)phenyl)-6,7-dihydro-5H-pyrrolo[3,4-b]pyridin-5-one]
18 | 0.00024 µM | Cn1cc(-c2ccc(-c3ccc(Cl)c4c3C(=O)N([C@H](C3CC3)C(C)(C)O)C4)cc2)cn1 [Compound 37, (R)-4-chloro-2-(1-cyclopropyl-2-hydroxy-2-methylpropyl)-7-(4-(1-methyl-1H-pyrazol-4-yl)phenyl)isoindolin-1-one]
19 | 0.00055 µM | Cc1nnc(-c2ccc(-c3ccc(Cl)c4c3C(=O)N([C@H](C3CC3)C(C)(C)O)C4)cc2)o1 [Compound 38, (R)-4-chloro-2-(1-cyclopropyl-2-hydroxy-2-methylpropyl)-7-(4-(5-methyl-1,3,4-oxadiazol-2-yl)phenyl)isoindolin-1-one]
20 | 0.00098 µM | Cc1nnc(-c2ccc(-c3c(Cl)ccc4c3C(=O)N([C@H](C3CC3)C(C)(C)O)C4)cc2)o1 [Compound 40, (R)-6-chloro-2-(1-cyclopropyl-2-hydroxy-2-methylpropyl)-7-(4-(5-methyl-1,3,4-oxadiazol-2-yl)phenyl)isoindolin-1-one]
21 | 0.00025 µM | Cc1nnc(-c2ccc(-c3c(F)cc(Cl)c4c3C(=O)N([C@H](C3CC3)C(C)(C)O)C4)cc2)o1 [Compound 41, (R)-4-chloro-2-(1-cyclopropyl-2-hydroxy-2-methylpropyl)-6-fluoro-7-(4-(5-methyl-1,3,4-oxadiazol-2-yl)phenyl)isoindolin-1-one]
22 | 0.14 µM | C[C@@H](N1Cc2cccc(-c3ccccc3OCC(F)(F)F)c2C1=O)C(C)(C)O [Compound 46, (R)-2-(3-hydroxy-3-methylbutan-2-yl)-7-(2-(2,2,2-trifluoroethoxy)phenyl) isoindolin-1-one]
23 | 0.081 µM | CC[C@@H](N1Cc2cccc(-c3ccc(-c4nnc(C)o4)cc3)c2C1=O)C(C)(C)O [Compound 48, 2-[(1R)-1-ethyl-2-hydroxy-2-methyl-propyl]-7-[4-(5-methyl-1,3,4-oxadiazol-2-yl)phenyl]isoindolin-1-one]
24 | 0.092 µM | O=C1c2c(cccc2-c2ccccc2OCC(F)(F)F)CN1[C@@H](CO)C1CC1 [Compound 49, (R)-2-(1-cyclopropyl-2-hydroxyethyl)-7-(2-(2,2,2-trifluoroethoxy)phenyl) isoindolin-1-one]

Row | Structure (SMILES) | EC50
25 | Cc1nnc(-c2ccc(-c3c(F)ccc4c3C(=O)N([C@H](C3CC3)C(C)(C)O)C4)cc2F)o1 [Compound 22, (R)-2-(1-cyclopropyl-2-hydroxy-2-methylpropyl)-6-fluoro-7-(3-fluoro-4-(5-methyl-1,3,4-oxadiazol-2-yl)phenyl) isoindolin-1-one] | […]
